# Data taken from publication PMC2972649 (Journal of Medicinal Chemistry, 2010).
# Experiments:
# Nek2 = target: T1, Nek2 (Homo sapiens, UniProt P51955); type: biochemical; conditions: for fold improvement in Nek2 potency on substitution of the thiophene: comparator not given
# T1 sequence (P51955 1-445): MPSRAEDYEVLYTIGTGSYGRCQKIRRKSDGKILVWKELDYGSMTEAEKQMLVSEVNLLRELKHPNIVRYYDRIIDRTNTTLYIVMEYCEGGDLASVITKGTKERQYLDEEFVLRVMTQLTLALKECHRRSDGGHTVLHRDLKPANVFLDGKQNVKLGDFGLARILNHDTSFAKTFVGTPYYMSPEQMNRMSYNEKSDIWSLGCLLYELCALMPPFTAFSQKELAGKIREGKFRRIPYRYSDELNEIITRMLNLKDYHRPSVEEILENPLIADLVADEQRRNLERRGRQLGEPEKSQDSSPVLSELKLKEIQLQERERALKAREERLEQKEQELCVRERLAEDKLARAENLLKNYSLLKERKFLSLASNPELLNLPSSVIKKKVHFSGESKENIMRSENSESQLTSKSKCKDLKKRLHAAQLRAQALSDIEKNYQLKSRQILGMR
# Nek1 = target: T2, Nek1 (Homo sapiens, UniProt Q96PY6); experiment: Nek1 Caliper kinase assay; type: biochemical; conditions: Nek2 versus Nek1
# T2 sequence (Q96PY6 1-505 limits assumed): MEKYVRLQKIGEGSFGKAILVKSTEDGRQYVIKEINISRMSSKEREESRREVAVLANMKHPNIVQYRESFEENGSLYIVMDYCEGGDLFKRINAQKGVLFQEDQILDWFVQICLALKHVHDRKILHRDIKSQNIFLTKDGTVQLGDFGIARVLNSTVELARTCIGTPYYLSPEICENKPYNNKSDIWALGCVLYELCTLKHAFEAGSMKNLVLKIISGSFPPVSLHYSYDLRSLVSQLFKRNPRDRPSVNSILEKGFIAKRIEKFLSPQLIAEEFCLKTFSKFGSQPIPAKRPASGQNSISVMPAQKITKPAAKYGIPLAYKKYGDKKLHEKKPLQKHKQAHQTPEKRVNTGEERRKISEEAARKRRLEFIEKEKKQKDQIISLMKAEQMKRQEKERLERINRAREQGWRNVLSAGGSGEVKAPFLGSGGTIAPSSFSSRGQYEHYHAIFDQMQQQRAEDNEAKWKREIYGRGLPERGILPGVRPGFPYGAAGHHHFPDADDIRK
Compound,fold improvement in Nek2 potency on substitution of the thiophene (Nek2),selectivity against Nek1 (Nek1),fold loss of Nek2 potency compared to hit 2 (Nek2)
Nc1nccnc1N1CCC(C(=O)O)CC1 [Compound 8],–,–,approximately 50 fold
"COc1cc(-c2cnc(N)c(N3CC[C@H](C(=O)O)[C@H](C)C3)n2)cc(OC)c1OC [Compound 20, (−)-(3S,4S)-1-(3-Amino-6-(3,4,5-trimethoxyphenyl)pyrazin-2-yl)-3-methylpiperidine-4-carboxylic Acid]",–,–,10
COc1cccc(-c2cnc(N)c(N3CCC(C(=O)O)CC3)n2)c1 [Compound 5],–,–,4-5 fold

# Results, then the compound that gave them:
fold improvement in Nek2 potency on substitution of the thiophene (Nek2),selectivity against Nek1 (Nek1),fold loss of Nek2 potency compared to hit 2 (Nek2),Compound
approximately 4 fold,approximately 10 fold,–,CCc1ccsc1-c1cnc(N)c(N2CCC(C(=O)O)CC2)n1 [Compound 35]
approximately 4 fold,–,–,Nc1ncc(-c2sccc2C2CC2)nc1N1CCC(C(=O)O)CC1 [Compound 36]
